Source: patent US8884030B2, “Inhibitors of Flaviviridae viruses” (priority 2010, dated 2014)

Each compound was assayed on human hepatoma Huh-7 cell line harboring a HCV replicon (assay: HCV replicon assay (inhibition of viral replication, luciferase)). Conditions: Hepatitis C virus, 72 h; 2 μM; Huh-7 HCV replicon cells, 3 days incubation; inhibition of viral replication; read-out: % inhibition at 2 μM.
Assay type: cell-based
Method: The anti-HCV activity of the compounds of this invention was tested in a human hepatoma Huh-7 cell line harboring a HCV replicon. The assay comprised the following steps:
Step 1: Compound Preparation and Serial Dilution.
Serial dilution was performed in 100% DMSO in a 384-well plate. A solution containing a compound at 225-fold concentration of the starting final serial dilution concentration was prepared in 100% DMSO and 15 uL added to the pre-specified wells in column 3 or 13 of a polypropylene 384-well plate. The rest of the 384-well plate was filled with 10 uL 100% DMSO except for columns 23 and 24, where 10 uL of 500 uM a HCV protease inhibitor (ITMN-191) in 100% DMSO was added. The HCV protease inhibitor was used a control of 100% inhibition of HCV replication. The plate was then placed on a Biomek FX Workstation to start the serial dilution. The serial dilution was performed for ten cycles of 3-fold dilution from column 3 to 12 or from column 13 to 22.
Step 2: Cell Culture Plate Preparation and Compound Addition
To each well of a black polypropylene 384-well plate, 90 μL of cell media containing 1600 suspended Huh-7 HCV replicon cells was added with a Biotek uFlow Workstation. A volume of 0.4 μL of the compound solution was transferred from the serial dilution plate to the cell culture plate on a Biomek FX Workstation. The DMSO concentration in the final assay condition was 0.44%. The plates were incubated for 3 days at 37° C. with 5% CO2 and 85% humidity.
Step 3: Detection of Cytotoxicity and Inhibition of Viral Replication
a) Assessment of cytotoxicity: The media in the 384-well cell culture plate was aspirated with a Biotek EL405 plate-washer. A volume of 50 μL of a solution containing 400 nM Calcein AM in 100% PBS was added to each well of the plate with a Biotek uFlow Workstation. The plate was incubated for 30 minutes at room temperature before the fluorescence signal ([…]) was measured with a Perkin Elmer Envision Plate Reader.
b) Assessment of inhibition of viral replication: The calcein-PBS solution in the 384-well cell culture plate was aspirated with a Biotek EL405 plate-washer. A volume of 20 μL of Dual-Glo luciferase buffer (Promega, Dual-Glo Luciferase Assay Reagent, cat. #E298B) was added to each well of the plate with a Biotek uFlow Workstation. The plate was incubated for 10 minutes at room temperature. A volume of 20 μL of a solution containing 1:100 mixture of Dual-Glo Stop & Glo substrate(Promega, Dual-Glo Luciferase Assay Reagent, cat. #E313B) and Dual-Glo Stop & Glo buffer (Promega, Dual-Glo Luciferase Assay Reagent, cat. #E314B) was then added to each well of the plate with a Biotek uFlow Workstation. The plate was incubated at room temperature for 10 minutes before the luminescence signal was measured with a Perkin Elmer Envision Plate Reader.
The percent cytotoxicity was determined by calcein AM conversion to fluorescent product. The average fluorescent signal from the DMSO control wells were defined as 100% nontoxic. The individual fluorescent signal from testing compound treated well was divided by the average signal from DMSO control wells and then multiplied by 100% to get the percent viability. The percent anti-HCV replication activity was determined by the luminescence signal from the testing well compared to DMSO controls wells. The background signal was determined by the average luminescence signal from the HCV protease inhibitor treated wells and was subtracted from the signal from the testing wells as well as the DMSO control wells. Following 3-fold serial dilutions, the EC50 and CC50 values were calculated by fitting % inhibition at each concentration to the following equation: % inhibition=100%[(EC50/[l])^b+1]
Where b is Hill's coefficient. See, for reference, Hill, A. V., The Possible Effects of the Aggregation of the Molecules of Hæmoglobin on its Dissociation Curves, J. Physiol. 40: iv-vii. (1910). […]
For `CC(C)(C)C#Cc1cc(N(C(=O)[C@H]2CC[C@H](C)CC2)C2CCC(=NOc3ccccc3)CC2)c(C(=O)O)s1` (stereo partly shown) [Compound 119, 5-(3,3-Dimethylbut-1-ynyl)-3-(4-methyl-N-(4-(phenoxyimino)cyclohexyl)cyclohexanecarboxamido)thiophene-2-carboxylic acid], the inhibition at 2 µM was 97.1%.
For `CC(C)(C)C#Cc1cc(N(C(=O)[C@H]2CC[C@H](C)CC2)C2CCN(C(=O)OC3CCNCC3)CC2)c(C(=O)O)s1` [Compound 31, 4-[[2-carboxy-5-(3,3-dimethyl-but-1-ynyl)-thiophen-3-yl]-(4-trans-methyl-cyclohexanecarbonyl)-amino]-piperidine-1-carboxylic acid piperidin-4-yl ester], the inhibition at 2 µM was 93.1%.
For `CC(C)(C)C#Cc1cc(N(C(=O)[C@H]2CC[C@H](C)CC2)C2CCN(C(=O)O[C@H]3CCNC3=O)CC2)c(C(=O)O)s1` [Compound 57, 4-[[2-carboxy-5-(3,3-dimethyl-but-1-ynyl)-thiophen-3-yl]-(4-methyl-cyclohexanecarbonyl)-amino]-piperidine-1-carboxylic acid 2-oxo-pyrrolidin-3-(S)-yl ester], the inhibition at 2 µM was 78.2%.
With `CC(C)(C)C#Cc1cc(N(C(=O)[C@H]2CC[C@H](C)CC2)C2CCC(NC(=O)OC3CCN(C(=O)OC(C)(C)C)CC3)CC2)c(C(=O)O)s1` (stereo partly drawn) [Compound 44, 4-{4-[[2-carboxy-5-(3,3-dimethyl-but-1-ynyl)-thiophen-3-yl]-(4-trans-methyl-cyclohexanecarbonyl)-amino]-cyclohexylcarbamoyloxy}-piperidine-1-carboxylic acid tert-butyl ester] the inhibition at 2 µM was 100%.
Compound `CC(C)(C)C#Cc1cc(N(C(=O)[C@H]2CC[C@H](C)CC2)C2CCC(NC(=O)O[C@@H]3CCOC3)CC2)c(C(=O)O)s1` (stereo partly drawn) [Compound 48, 5-(3,3-dimethyl-but-1-ynyl)-3-{(4-trans-methyl-cyclohexanecarbonyl)-[4-(tetrahydro-furan-3-(R)-yloxycarbonylamino)-cyclohexyl]-amino}-thiophene-2-carboxylic acid] has an inhibition at 2 µM of 100%.
Compound `CC1CCC(C(=O)N(c2cc(C#CC(C)(C)C)sc2C(=O)O)C2CCN(C(=O)c3cccnc3)C2)CC1` (stereo not shown) [Compound 142, 5-(3,3-Dimethyl-but-1-ynyl)-3-{(4-methyl-cyclohexanecarbonyl)-[1-(pyridine-3-carbonyl)-pyrrolidin-3-yl]-amino}-thiophene-2-carboxylic acid] has an inhibition at 2 µM of 99.6%.
For `CC(C)(C)C#Cc1cc(N(C(=O)[C@H]2CC[C@H](C)CC2)C2CCN(C(=O)OC3CCS(=O)(=O)C3)CC2)c(C(=O)O)s1` (stereo partly drawn) [Compound 74, 4-[[2-carboxy-5-(3,3-dimethyl-but-1-ynyl)-thiophen-3-yl]-(trans-4-methyl-cyclohexanecarbonyl)-amino]-piperidine-1-carboxylic acid 1,1-dioxo-tetrahydro-1λ^6-thiophen-3-yl ester], the inhibition at 2 µM was 99.7%.
`CC1CCC(C(=O)N(c2cc(C#CC(C)(C)C)sc2C(=O)O)N(C)CCOc2ccccn2)CC1` (stereo not shown) [Compound 132, 5-(3,3-dimethyl-but-1-ynyl)-3-{N′-methyl-N-(4-methyl-cyclohexanecarbonyl)-N′-[2-(pyridin-2-yloxy)-ethyl]-hydrazino}-thiophene-2-carboxylic acid] showed an inhibition at 2 µM of 77.4%.
`CC(C)(C)C#Cc1cc(N(C(=O)[C@H]2CC[C@H](C)CC2)C2CCC(NC(=O)O[C@@H]3CCCNC3)CC2)c(C(=O)O)s1` (stereo partly drawn) [Compound 47, 5-(3,3-dimethyl-but-1-ynyl)-3-{(4-trans-methyl-cyclohexanecarbonyl)-[4-(piperidin-3-(R)-yloxycarbonylamino)-cyclohexyl]-amino}-thiophene-2-carboxylic acid] gave an inhibition at 2 µM of 99.9%.
With `CC(C)(C)C#Cc1cc(N(C(=O)[C@H]2CC[C@H](C)CC2)[C@H]2CCN(C(=O)O[C@H]3CNC(=O)C3)C2)c(C(=O)O)s1` [Compound 34, 3-(S)-[[2-carboxy-5-(3,3-dimethyl-but-1-ynyl)-thiophen-3-yl]-(4-trans-methyl-cyclohexanecarbonyl)-amino]-pyrrolidine-1-carboxylic acid 5-oxo-pyrrolidin-3-(R)-yl ester] the inhibition at 2 µM was 97.8%.
